{
  "source": "patent US5567724A",
  "about": "“Alkaline and acid phosphatase inhibitors in treatment of neurological disorders” (Cortex Pharmaceuticals, Inc., priority 1994, dated 1996)",
  "key": {"Hippocampal neurons": {"tested_on": "Hippocampal neurons", "assay": "Okadaic acid with β-amyloid on hippocampal neurons, LDH efflux", "format": "cell-based", "details": "50 nM okadaic acid with 50 μM β-amyloid (β25-35), 24 hours, DME medium, 37° C.", "procedure": "Hippocampal neurons were treated with 50 μM β-amyloid (β25-35)and 50 nM okadaic acid for 24 hours in Dulbeccois Modified Eagle's (DME) medium at 37° C. Following the 24-hour treatment period, an aliquot of media was removed for determination of LDH efflux from the neurons, which is an indicator of cell death. Each bar in FIG. 3, except the bar representing okadaic acid alone, represents the mean of 4 wells ± the standard deviation. The bar representing okadaic acid alone represents the mean of 2 wells ± the standard deviation."}, "[1]": {"tested_on": "rat embryonic hippocampal neurons", "details": "50 μM β-amyloid 25-35", "procedure": "To further determine the effect of alkaline phosphatase inhibitors on βamyloid peptide toxicity, rat embryonic hippocampal neurons in culture were exposed to 50 μM β-amyloid 25-35 in the presence of levamisole concentrations of 250 μM and 500 μM."}, "[2]": {"procedure": "Human subjects diagnosed as suffering from AD are administered 50 mg of an arylimidothiazole derivative, such as levamisole, orally every eight hours for three days. The treatment is repeated every 14 days for a period of 6 months. […] A human patient diagnosed as suffering from Alzheimer's Disease is administered about 50 mg levamisole orally every eight hours for three days. The treatment is repeated every 14 days for a period of 6 months. […] Human subjects diagnosed as suffering from AD are administered 0.05 mg/kg of an arylimidothiazole derivative, such as levamisole, orally every day for a period of six months. […] A human patient diagnosed as suffering from Alzheimer's Disease is identified as having deteriorating symptoms of the disease. The patient is administered about 10 mg levamisole orally once per day for a period of six months."}, "[3]": {"tested_on": "Porcine kidney alkaline phosphatase", "assay": "Alkaline phosphatase assay with pNPP substrate, porcine kidney enzyme", "format": "biochemical", "details": "pNPP 5 mM, pH 5.5 lysis buffer", "procedure": "(§1) Porcine kidney (0.01 U) and calf intestinal (0.002 U) alkaline phosphatases were assayed in the presence of levamisole (200 μM) or vanadate salt (5-500 μM) using pNPP (5 mM) as substrate. The assay was carried out in pH 5.5 lysis buffer. Each bar in FIG. 4 represents the mean of quadruplicates ± the standard deviation. The results of the experiment of Example 4 are illustrated in FIG. 4. […] The effect of treatment on humans with AD using arylimidothiazole derivatives having alkaline phosphatase inhibitory activity is described below in Examples 5-9."}, "[4]": {"tested_on": "calf intestinal alkaline phosphatase", "assay": "Alkaline phosphatase assay with pNPP substrate, calf intestinal enzyme", "format": "biochemical", "details": "pNPP 5 mM, pH 5.5 lysis buffer", "procedure": "as §1"}, "HT4 neurotumor cells": {"tested_on": "HT4 neurotumor cells", "assay": "β-amyloid peptide toxicity in HT4 neurotumor cells, LDH release", "format": "cell-based, rat", "details": "100 μM inhibitor; 50 μM β-amyloid peptide 25-35 and 250 μM quisqualate; 24 hours after treatment", "procedure": "HT4 neurotumor cells were treated with 50 μM β-amyloid peptide 25-35 and 250 μM quisqualate. The cells were also treated with 100 μM of the following alkaline phosphatase inhibitors: 1,10 phenanthroline, phenylalanine, IBMX, bromotetramisole, purine, and theophylline. The death of the neurons was determined by measuring LDH activity in the media 24 hours after treatment. The release of LDH from the cells into the surrounding media indicates cell death.\nFIG. 1 illustrates the results of the study of Example 1. […] Cells subjected to no treatment had only a low level of LDH activity."}, "[5]": {"tested_on": "Dorsal root ganglion cells", "assay": "Vinblastine-induced toxicity in dorsal root ganglion cells, live/dead staining", "format": "cell-based", "details": "Na,K-tartrate 500 μM; NGF 50 ng/ml; vinblastine 500 nM; 24 hours", "procedure": "Dorsal root ganglion cells were treated with Nerve Growth Factor (NGF) (50 ng/ml), vinblastine (500 nM) and Na,K-tartrate (500 μM) for 24 hours. Following the treatment, the dorsal root ganglion cells were stained with ethidium bromide and fluorescein diacetate to stain dead and live cells, respectively.\nFIG. 5 illustrates the results of the study of Example 16. Percentage cell viability is determined from the ratio of live cells to total cell number. Each bar in […] represents the mean of 3 wells ± the standard deviation."}},
  "note": "Counter-ions that a name gives are not always drawn. Like-named read-outs stand apart in the source and are kept apart here.",
  "data": [
    {"smiles": "C=C1[C@@H](O)[C@@H]2O[C@]3(CC[C@H](/C=C/[C@@H](C)[C@@H]4CC(C)=C[C@@]5(O[C@H](C[C@@](C)(O)C(=O)O)CC[C@H]5O)O4)O3)CC[C@H]2O[C@@H]1[C@@H](O)C[C@H](C)[C@H]1O[C@@]2(CCCCO2)CC[C@H]1C", "note": "[okadaic acid]", "values": [
      {"measurement": "hippocampal neuronal injury (LDH efflux)", "setting": "Hippocampal neurons", "value": "causes hippocampal neuronal injury"}
    ]},
    {"smiles": "c1ccc([C@H]2CN3CCSC3=N2)cc1", "note": "[levamisole, (-)-(S)-2,3,5,6-tetrahydro-6-phenylimidoazide [2,1-b]thiazole monohydrochloride]", "values": [
      {"measurement": "death of the neurons, as indicated by the release of LDH", "setting": "[1]; levamisole 250 μM", "value": "reduced"},
      {"measurement": "LDH activity", "setting": "[1]; levamisole 500 μM", "value": "reduced"},
      {"measurement": "symptoms of AD", "setting": "[2]; 50 mg orally every eight hours for three days, repeated every 14 days for 6 months", "value": "lessened"},
      {"measurement": "symptoms of AD", "setting": "[2]; about 10 mg orally once per day for six months", "value": "decrease"},
      {"measurement": "Inhibition of porcine kidney alkaline phosphatase activity", "setting": "[3]; levamisole 200 μM", "value": "unexpectedly high"},
      {"measurement": "Inhibition of calf intestinal alkaline phosphatase", "setting": "[4]; levamisole 200 μM", "value": "little effect"}
    ]},
    {"smiles": "CC(C)Cn1c(=O)n(C)c(=O)c2[nH]cnc21", "note": "[IBMX]", "values": [
      {"measurement": "LDH activity in the media (cell death)", "setting": "HT4 neurotumor cells", "value": "most effective compound tested"}
    ]},
    {"smiles": "O=C(O)C(O)C(O)C(=O)O", "note": "(single isomer, unassigned) [Na,K-tartrate]", "values": [
      {"measurement": "percentage cell viability in the presence of vinblastine", "setting": "[5]", "value": "significantly increased"}
    ]},
    {"smiles": "[O]=[V]([O-])([O-])[O-]", "note": "[vanadate]", "values": [
      {"measurement": "Inhibition of porcine kidney alkaline phosphatase activity", "setting": "[3]; vanadate salt 5-500 μM", "value": "appear to inhibit"},
      {"measurement": "Inhibition of calf intestinal alkaline phosphatase", "setting": "[4]; vanadate 100 μM", "value": "significantly inhibited"}
    ]}
  ]
}
